Counter-ions that a name gives are not always drawn.
What was measured:
breast cancer 4T1 cells [1] = assay: Tumor inhibition, breast cancer 4T1 transplantation tumor (Example 7); format: in vivo, BALB/c mouse; conditions: intratumoral; for Tumor weight (x ± s): 150 ul/mouse, once every 3 days x3, 5th day after end; for Tumor inhibition rate: vs negative control
Method: (§1) In the following examples of the present invention, the co-administration pharmaceutical efficacies of drug A and drug B combination administration was determined by ratio q of actual pharmaceutical efficacy/expected pharmaceutical efficacy according to Zhengjun JIN method, as follows.
In an experiment, the test animal was a BALB/c mouse, the modeling cells were breast cancer 4T1 cells, and the transplantation tumor was modeled at 1×10^6 cells/mouse under the skin of the animal's right axilla. […] The negative controls and study drugs were administered intraperitoneally (groups 02, 11 and 15) and intratumorally (other study groups), respectively. All groups were dosed once every 3 days, for a total of 3 times, […], with an injection volume of 150 ul/mouse. On the 5th day after the administration was ended, the animals were euthanized, and the tumor weight was measured after anatomy to the animals. The tumor inhibition rate was calculated from the negative control group.

breast cancer 4T1 cells [2] = assay: Tumor inhibition, breast cancer 4T1 transplantation tumor (Example 6); format: in vivo, BALB/c mouse; conditions: intratumoral; for Tumor weight (x ± s): 150 μl/mouse, once every 3 days x3, 5th day after end; for Tumor inhibition rate: vs negative control
Method: as §1
(§2) In an experiment, the test animal was a BALB/c mouse, the modeling cells were breast cancer 4T1 cells, and the transplantation tumor was modeled at 1×10^5 cells/mouse under the skin of the animal's right axilla. Successfully modeled experimental animals (with an average tumor volume of 324 mm^3) were divided into 1 negative control group (group 0) and 9 drug study groups (groups 1-9). […] Each group was administered by intratumoral injection once every 3 days for a total of 3 times, each time at an injection dose of 150 μl/mouse. On the 5th day after the administration was ended, the animals were euthanized, and the tumor weight was measured after anatomy to the animals. The tumor inhibition rate was calculated from the negative control group.

[3] = pH of the study drug aqueous solution; format: physicochemical; conditions: aqueous solution
breast cancer 4T1 cells [4] = assay: Tumor inhibition, breast cancer 4T1 transplantation tumor (Example 8); format: in vivo, BALB/c mouse; conditions: intratumoral; for Tumor weight (x ± s): 150 μl/mouse, once every 3 days x3, 5th day after end; for Tumor inhibition rate: vs negative control
Method: as §1
as §2, with “336” for “324”, “16” for “9”, “1-16).” for “1-9).”

[5] = test system: mouse liver cancer Hepa1-6 cells; assay: Series B: tumor inhibition, Hepa1-6 transplantation tumor in 8-month-old mice (Example 10); format: in vivo; conditions: one intratumoral injection 100 μl/mouse; for r'3d, tumor inhibition rate (tumor volume): day 3; for r'14d, tumor inhibition rate (tumor volume): day 14
Method: The animals in series B were modeled in 8-month-old mice as a middle-aged and elderly patient model, which was not consistent with the commonly used young patient model in terms of tumor formation, tumor histomorphology, and body immunocompetence. […] The model animals were randomly divided into 13 groups. Each group was administered once by intratumoral injection according to the drug grouping in Table 11 with an injection volume of 100 μl/mouse.
The actual/expected ratio […] for short-term drug efficacy and the actual/expected ratio q14d for medium-term drug efficacy were calculated based on the drug efficacies (r′3d, […]) at different times (day 3, day 14), respectively.

breast cancer 4T1 cells [6] = assay: Tumor inhibition, breast cancer 4T1 transplantation tumor (Example 3); format: in vivo, BALB/c mouse; conditions: intratumoral; for Tumor weight (x ± s): 150 μl/mouse, once every 3 days x3, 5th day after end; for Tumor inhibition rate: vs negative control
Method: as §1
as §2, with “1×10^6” for “1×10^5”, “axilla.” for “axilla. Successfully modeled experimental animals (with an average tumor volume of 324 mm^3) were divided into 1 negative control group (group 0) and 9 drug study groups (groups 1-9).”, “determined” for “measured”

breast cancer 4T1 cells [7] = assay: Tumor inhibition, breast cancer 4T1 transplantation tumor (Example 4); format: in vivo, BALB/c mice; conditions: intratumoral; for Tumor weight (x ± s): 150 μl/mouse, once every 3 days x3, 5th day after end; for Tumor inhibition rate: vs negative control
Method: as §1
In another experiment, the test animal was BALB/c mice, the modeling cells were breast cancer 4T1 cells, and the transplantation tumor was modeled at 1×10^6 cells/mouse under the skin of the animal's right axilla. Successfully modeled experimental animals (average tumor volume 307 mm^3) were randomly divided into 1 negative control group (group 0) and 13 drug study groups (groups 1-13). […] Each group was administered by intratumoral injection once every 3 days for a total of 3 times, each time at an injection dose of 150 μl/mouse. On the 5th day after the administration was ended, the animals were euthanized, and the tumor weight was measured after anatomy to the animals. The tumor inhibition rate was calculated from the negative control group.

breast cancer 4T1 cells [8] = assay: Tumor inhibition, breast cancer 4T1 transplantation tumor (Example 5); format: in vivo, BALB/c mouse; conditions: intratumoral; for Tumor weight (x ± s): once every 3 days x3, 5th day after end; for Tumor inhibition rate: vs negative control
Method: as §1
as §2, with “In one” for “In an”, “at 1×10^6” for “at 1×10^5”, “axilla.” for “axilla. Successfully modeled experimental animals (with an average tumor volume of 324 mm^3) were divided into 1 negative control group (group 0) and 9 drug study groups (groups 1-9).”, “[…].” for “150 μl/mouse.”

[9] = study drugs of Example 6 (Table 8)
[10] = study drugs of Example 3 (Table 5)
[11] = study drugs of Example 4 (Table 6)
[12] = study drugs of Example 5 (Table 7)

CN(C)c1ccc2nc3ccc(=[N+](C)C)cc-3sc2c1 [0.3% methylene blue, methylene blue]
Tumor weight (x ± s) (breast cancer 4T1 cells [1]): 2.11 ± 0.29 g
Tumor inhibition rate (breast cancer 4T1 cells [1]): 3%

Cl [0.4% hydrochloric acid, hydrochloric acid]
Tumor weight (x ± s) (breast cancer 4T1 cells [2]): 1.65 ± 0.21 g
Tumor inhibition rate (breast cancer 4T1 cells [2]): 21%
pH [3, 9]: 0.1

O=c1[nH]cc(F)c(=O)[nH]1 [0.25% 5-fluorouracil, 5-fluorouracil]
Tumor weight (x ± s) (breast cancer 4T1 cells [1]): 1.94 ± 0.33 g
Tumor inhibition rate (breast cancer 4T1 cells [1]): 11%

O=c1[nH]cc(F)c(=O)[nH]1 [1% 5-fluorouracil, 5-fluorouracil]
Tumor weight (x ± s) (breast cancer 4T1 cells [1]): 1.07 ± 0.26 g
Tumor inhibition rate (breast cancer 4T1 cells [1]): 51%
Tumor weight (x ± s) (breast cancer 4T1 cells [4]): 1.10 ± 0.26 g
Tumor inhibition rate (breast cancer 4T1 cells [4]): 51%
r'3d, tumor inhibition rate (tumor volume) [5]: 26.8%
r'14d, tumor inhibition rate (tumor volume) [5]: 3.1%

[Na+].[OH-] [1% NaOH, sodium hydroxide]
Tumor weight (x ± s) (breast cancer 4T1 cells [6]): 1.41 ± 0.23 g
Tumor inhibition rate (breast cancer 4T1 cells [6]): 42%
pH [3, 10]: 13.4

CN(C)c1ccc2nc3ccc(=[N+](C)C)cc-3sc2c1 [1% methylene blue, methylene blue]
Tumor weight (x ± s) (breast cancer 4T1 cells [1]): 1.72 ± 0.27 g
Tumor inhibition rate (breast cancer 4T1 cells [1]): 21%
Tumor weight (x ± s) (breast cancer 4T1 cells [4]): 1.73 ± 0.23 g
Tumor inhibition rate (breast cancer 4T1 cells [4]): 23%
r'3d, tumor inhibition rate (tumor volume) [5]: 27.8%
r'14d, tumor inhibition rate (tumor volume) [5]: 16.9%

CCN(CC)c1ccc(C(=C2C=CC(=[N+](CC)CC)C=C2)c2cc(O)c(S(=O)(=O)O)cc2S(=O)(=O)O)cc1 [1% patent blue, patent blue]
Tumor weight (x ± s) (breast cancer 4T1 cells [4]): 1.71 ± 0.25 g
Tumor inhibition rate (breast cancer 4T1 cells [4]): 24%

[Cl-].[K+] [2% KCl, potassium chloride]
Tumor weight (x ± s) (breast cancer 4T1 cells [6]): 2.19 ± 0.31 g
Tumor inhibition rate (breast cancer 4T1 cells [6]): 11%

O=C([O-])O.[Na+] [2% sodium bicarbonate, sodium bicarbonate]
Tumor weight (x ± s) (breast cancer 4T1 cells [7]): 2.10 ± 0.25 g
Tumor inhibition rate (breast cancer 4T1 cells [7]): 7%
pH [3, 11]: 8.2

O=C([O-])[O-].[Na+].[Na+] [2.8% sodium carbonate, sodium carbonate]
Tumor weight (x ± s) (breast cancer 4T1 cells [7]): 2.10 ± 0.27 g
Tumor inhibition rate (breast cancer 4T1 cells [7]): 7%
pH [3, 11]: 10.9

CC(=O)O [3% acetic acid, acetic acid]
Tumor weight (x ± s) (breast cancer 4T1 cells [8]): 1.85 ± 0.26 g
Tumor inhibition rate (breast cancer 4T1 cells [8]): 15%
pH [3, 12]: 2.6

C=C[C@H]1C[N@@]2CC[C@H]1C[C@H]2[C@H](O)c1ccnc2ccc(OC)cc12 [3% quinine monohydrochloride, quinine monohydrochloride]
Tumor weight (x ± s) (breast cancer 4T1 cells [4]; monohydrochloride): 1.71 ± 0.26 g
Tumor inhibition rate (breast cancer 4T1 cells [4]; monohydrochloride): 24%

Cl [3.5% hydrochloric acid, hydrochloric acid]
Tumor weight (x ± s) (breast cancer 4T1 cells [2]): 0.82 ± 0.18 g
Tumor inhibition rate (breast cancer 4T1 cells [2]): 71%
pH [3, 9]: 0.1

O=C([O-])O.[Na+] [4% sodium bicarbonate, sodium bicarbonate]
Tumor weight (x ± s) (breast cancer 4T1 cells [8]): 1.68 ± 0.27 g
Tumor inhibition rate (breast cancer 4T1 cells [8]): 23%
Tumor weight (x ± s) (breast cancer 4T1 cells [6]): 1.87 ± 0.22 g
Tumor inhibition rate (breast cancer 4T1 cells [6]): 23%
pH [3, 10]: 8.2
pH [3, 12]: 8.2

[Na+].[OH-] [5% NaOH, sodium hydroxide]
Tumor weight (x ± s) (breast cancer 4T1 cells [6]): 0.28 ± 0.12 g
Tumor inhibition rate (breast cancer 4T1 cells [6]): 72%
pH [3, 10]: 14.0

Cl [5% hydrochloric acid, hydrochloric acid]
Tumor weight (x ± s) (breast cancer 4T1 cells [2]): 0.36 ± 0.14 g
Tumor inhibition rate (breast cancer 4T1 cells [2]): 83%
pH [3, 9]: 0.1

C=C[C@H]1C[N@@]2CC[C@H]1C[C@H]2[C@H](O)c1ccnc2ccc(OC)cc12 [5% quinine dihydrochloride, quinine dihydrochloride]
Tumor weight (x ± s) (breast cancer 4T1 cells [4]; dihydrochloride): 1.46 ± 0.21 g
Tumor inhibition rate (breast cancer 4T1 cells [4]; dihydrochloride): 35%

O=C([O-])O.[Na+] [5% sodium bicarbonate, sodium bicarbonate]
Tumor weight (x ± s) (breast cancer 4T1 cells [7]): 1.79 ± 0.24 g
Tumor inhibition rate (breast cancer 4T1 cells [7]): 21%
Tumor weight (x ± s) (breast cancer 4T1 cells [2]): 1.57 ± 0.20 g
Tumor inhibition rate (breast cancer 4T1 cells [2]): 25%
pH [3, 11]: 8.2
pH [3, 9]: 8.2

O=C([O-])[O-].[Na+].[Na+] [7% sodium carbonate, sodium carbonate]
Tumor weight (x ± s) (breast cancer 4T1 cells [7]): 1.81 ± 0.21 g
Tumor inhibition rate (breast cancer 4T1 cells [7]): 20%
pH [3, 11]: 10.8

CC(=O)[O-].[Na+] [10% sodium acetate, sodium acetate]
Tumor weight (x ± s) (breast cancer 4T1 cells [8]): 1.72 ± 0.23 g
Tumor inhibition rate (breast cancer 4T1 cells [8]): 21%
pH [3, 12]: 9.3

O=C([O-])O.[Na+] [10% sodium bicarbonate, sodium bicarbonate]
Tumor weight (x ± s) (breast cancer 4T1 cells [6]): 1.65 ± 0.29 g
Tumor inhibition rate (breast cancer 4T1 cells [6]): 32%
Tumor weight (x ± s) (breast cancer 4T1 cells [7]): 1.58 ± 0.22 g
Tumor inhibition rate (breast cancer 4T1 cells [7]): 30%
pH [3, 10]: 8.1
pH [3, 11]: 8.1

O=C([O-])[O-].[Na+].[Na+] [14% sodium carbonate, sodium carbonate]
Tumor weight (x ± s) (breast cancer 4T1 cells [7]): 1.47 ± 0.24 g
Tumor inhibition rate (breast cancer 4T1 cells [7]): 35%
pH [3, 11]: 10.8

CC(=O)O [15% acetic acid, acetic acid]
Tumor weight (x ± s) (breast cancer 4T1 cells [8]): 0.70 ± 0.18 g
Tumor inhibition rate (breast cancer 4T1 cells [8]): 68%
pH [3, 12]: 2.5

NCC(=O)O [15% glycine, glycine]
Tumor weight (x ± s) (breast cancer 4T1 cells [1]): 1.81 ± 0.26 g
Tumor inhibition rate (breast cancer 4T1 cells [1]): 17%
Tumor weight (x ± s) (breast cancer 4T1 cells [8]): 1.81 ± 0.26 g
Tumor inhibition rate (breast cancer 4T1 cells [8]): 17%
pH [3, 12]: 6.8
pH ([3]; study drugs of Example 7 (Table 9)): 6.8

O=C([O-])O.[Na+] [15% sodium bicarbonate, sodium bicarbonate]
Tumor weight (x ± s) (breast cancer 4T1 cells [2]): 1.29 ± 0.24 g
Tumor inhibition rate (breast cancer 4T1 cells [2]): 38%
pH [3, 9]: 8.1

CC(=O)O [30% acetic acid, acetic acid]
Tumor weight (x ± s) (breast cancer 4T1 cells [8]): 0.41 ± 0.11 g
Tumor inhibition rate (breast cancer 4T1 cells [8]): 81%
pH [3, 12]: 2.5

CC(=O)[O-].[Na+] [30% sodium acetate, sodium acetate]
Tumor weight (x ± s) (breast cancer 4T1 cells [8]): 1.53 ± 0.21 g
Tumor inhibition rate (breast cancer 4T1 cells [8]): 30%
pH [3, 12]: 9.4

dextran40 [2.5% dextran40 aqueous solution]
r'3d, tumor inhibition rate (tumor volume) [5]: 4.2%
r'14d, tumor inhibition rate (tumor volume) [5]: 5.3%

yeast hydroxymethyl glucan
r'3d, tumor inhibition rate (tumor volume) [5]: 4.5%
r'14d, tumor inhibition rate (tumor volume) [5]: 7.8%

— patent publication US20230414617A1, “PHARMACEUTICAL COMPOSITION COMPRISING ACID-BASE NEUTRALIZATION COMBINATION AND APPLICATION THEREOF” (CHENGDU KUACHANGAOPU MEDICAL TECHNOLOGY CO., LTD., priority 2020, published 2023)
